Data from publication PMC12190468, “Designing New Chimeric Proline-Rich Antimicrobial Peptides to Enhance Efficacy Toward the ESKAPE+E: Beyond Sequence Extension” (Biomolecules, 2025).
Where two headings read alike, the source gives them in different places. Ends that are not written are not given here.

Assays:
E. cloacae ATCC 13047 [1] = format: cell-based, Enterobacter cloacae
Procedure: (§1) Reference bacterial strains, including Escherichia coli BW25113, Escherichia coli ATCC 25922, Klebsiella pneumoniae ATCC 700603, Acinetobacter baumannii ATCC 19606, Enterobacter cloacae ATCC 13047, Pseudomonas aeruginosa ATCC 27853, Staphylococcus aureus ATCC 25923, and Enterococcus faecium ATCC 19434, were obtained from the American Type Culture Collection (ATCC) in Manassas, VA, USA. Strains were stored at −80 °C in glycerol stocks until use. For all experiments, cultures were grown in sterile MHB (Difco Inc., Becton Dickinson, Sparks, MD, USA). Overnight cultures were incubated at 37 °C for approximately 18 h under shacking (140 rpm, then diluted 1:30 in fresh MHB and again shaken at 140 rpm for ~2 h to reach the mid-log phase (OD ~0.3 at 600 nm). The bacterial cultures were then diluted to the desired concentration for experiments. E. coli BW25113 ΔsbmA (Keio collection) was grown in MHB with the addition of 50 μg/mL kanamycin (Sigma, Milan, Italy).
(§2) Antimicrobial activity was assessed using the Minimum Inhibitory Concentration (MIC) assay, following CLSI guidelines. Briefly, peptides were serially diluted in MHB across a 96-well round-bottom plate (Sarstedt, Milan, Italy), starting with 50 μL in the first well. A mid-log bacterial culture was diluted to 5 × 10^5 CFU/mL, and 50 μL of this suspension was added to each well (except the MHB sterility control wells). […] MIC values were confirmed by at least three independent experiments (n ≥ 3).

E. coli ATCC 25922 [2] = format: cell-based, Escherichia coli
Procedure: as §1, §2

E. coli BW 25113 ΔsbmA = format: cell-based, Escherichia coli; conditions: full MHB, 18 h at 37 °C, mode of at least three independent experiments
Procedure: as §1, §2

E. coli BW 25113 [3] = format: cell-based, Escherichia coli; conditions: full MHB, 18 h at 37 °C, mode of at least three independent experiments
Procedure: as §1, §2

E. faecium ATCC 19434 [4] = format: cell-based, Enterococcus faecium
Procedure: as §1
(§3) The Minimal Bactericidal Concentration (MBC) was determined by plating 25 μL from clear MIC wells onto MH-agar Petri dishes (Difco Inc., Becton Dickinson, Sparks, MD, USA), followed by overnight incubation at 37 °C. The MBC was the lowest compound concentration, reducing bacterial viability by ≥99.9%. Results were based on at least three independent experiments (n ≥ 3).

E. faecium ATCC 19434 [5] = format: cell-based, Enterococcus faecium; remark: listed apart in the source
Procedure: as §1, §2

E. coli ATCC 25922 [6] = format: cell-based, Escherichia coli; remark: listed apart in the source
Procedure: as §1, §3

E. coli BW 25113 [7] = format: cell-based, Escherichia coli; conditions: ≥99.9% reduction of viability, after 18 h at 37 °C, mode of at least three independent experiments
Procedure: as §1, §3

E. cloacae ATCC 13047 [8] = format: cell-based, Enterobacter cloacae; remark: listed apart in the source
Procedure: as §1, §3

P. aeruginosa ATCC 27853 [9] = format: cell-based, Pseudomonas aeruginosa
Procedure: as §1, §2

A. baumannii ATCC 19606 [10] = format: cell-based, Acinetobacter baumannii
Procedure: as §1, §3

[11] = tested on: K. pneumoniae ATCC 700603; format: cell-based, Klebsiella pneumoniae
Procedure: as §1, §3

P. aeruginosa ATCC 27853 [12] = format: cell-based, Pseudomonas aeruginosa; remark: listed apart in the source
Procedure: as §1, §3

S. aureus ATCC 25923 [13] = format: cell-based, Staphylococcus aureus
Procedure: as §1, §3

A. baumannii ATCC 19606 [14] = format: cell-based, Acinetobacter baumannii; conditions: ATCC 19606, 18 h
Procedure: as §1, §2

S. aureus ATCC 25923 [15] = format: cell-based, Staphylococcus aureus; conditions: ATCC 25923, 18 h
Procedure: as §1, §2

[16] = tested on: K. pneumoniae ATCC 700603; format: cell-based, Klebsiella pneumoniae; conditions: ATCC 700603, 18 h
Procedure: as §1, §2

Sequence	MIC (E. coli BW 25113 ΔsbmA)	MIC (E. coli BW 25113 [3])	MBC (E. coli BW 25113 [7])	MIC (A. baumannii ATCC 19606 [14])	MIC (E. coli ATCC 25922 [2]; ATCC 25922, 18 h)	MIC (geometric mean) (E. coli ATCC 25922 [2]; ATCC 25922, 18 h)	MBC (E. faecium ATCC 19434 [4]; ATCC 19434, 18 h)	MBC (E. cloacae ATCC 13047 [8]; ATCC 13047, 18 h)	MIC (P. aeruginosa ATCC 27853 [9]; ATCC 27853, 18 h)	MIC (geometric mean) (P. aeruginosa ATCC 27853 [9]; ATCC 27853, 18 h)	MIC (S. aureus ATCC 25923 [15])	MIC (geometric mean) (S. aureus ATCC 25923 [15])	MBC (P. aeruginosa ATCC 27853 [12]; ATCC 27853, 18 h)	MBC (S. aureus ATCC 25923 [13]; ATCC 25923, 18 h)	further results
WRIRRRWPRLPRPRWR [Peptide B7-005]	2 µM	1 µM	2 µM	–	–	–	–	–	–	–	–	–	–	–	MIC (E. cloacae ATCC 13047 [1]; E. cloacae ATCC 13047, full MHB, 18 h at 37 °C, mode of at least three independent experiments): 8 µM; MIC (E. coli ATCC 25922 [2]; E. coli ATCC 25922, full MHB, 18 h at 37 °C, mode of at least three independent experiments): 1 µM; MBC (E. faecium ATCC 19434 [4]; E. faecium ATCC 19434, ≥99.9% reduction of viability, after 18 h at 37 °C, mode of at least three independent experiments): >64 µM; MIC (E. faecium ATCC 19434 [5]; E. faecium ATCC 19434, full MHB, 18 h at 37 °C, mode of at least three independent experiments): 32 µM; MBC (E. coli ATCC 25922 [6]; E. coli ATCC 25922, ≥99.9% reduction of viability, after 18 h at 37 °C, mode of at least three independent experiments): 2 µM; MBC (E. cloacae ATCC 13047 [8]; E. cloacae ATCC 13047, ≥99.9% reduction of viability, after 18 h at 37 °C, mode of at least three independent experiments): 16 µM; MIC (P. aeruginosa ATCC 27853 [9]; P. aeruginosa ATCC 27853, full MHB, 18 h at 37 °C, mode of at least three independent experiments): 16 µM; MBC (A. baumannii ATCC 19606 [10]; A. baumannii ATCC 19606, ≥99.9% reduction of viability, after 18 h at 37 °C, mode of at least three independent experiments): 4 µM; MBC ([11]; K. pneumoniae ATCC 700603, ≥99.9% reduction of viability, after 18 h at 37 °C, mode of at least three independent experiments): 4 µM; MBC (P. aeruginosa ATCC 27853 [12]; P. aeruginosa ATCC 27853, ≥99.9% reduction of viability, after 18 h at 37 °C, mode of at least three independent experiments): 16 µM; MBC (S. aureus ATCC 25923 [13]; S. aureus ATCC 25923, ≥99.9% reduction of viability, after 18 h at 37 °C, mode of at least three independent experiments): 16 µM
WRIRRRWPRLPRPRWRPLPFPR [Peptide B7-B6]	2 µM	1 µM	1 µM	1 µM	2 µM	1,6 µM	>64 µM	4 µM	8 µM	10,1 µM	8 µM	10,1 µM	16 µM	16 µM	MIC (E. faecium ATCC 19434 [5]; ATCC 19434, 18 h): 8 µM; MIC (geometric mean) (E. faecium ATCC 19434 [5]; ATCC 19434, 18 h): 10,1 µM; MBC (E. coli ATCC 25922 [6]; ATCC 25922, 18 h): 2 µM; MBC (geometric mean) (E. coli ATCC 25922 [6]; ATCC 25922, 18 h): 1,6 µM
WRIRRRWPRLPRPRWRPLPFPRPGPRP [Peptide B7-B11]	1 µM	0.5 µM	1 µM	1 µM	1 µM	0,8 µM	>64 µM	4 µM	16 µM	12,7 µM	16 µM	20,2 µM	16 µM	32 µM	MIC (geometric mean) (A. baumannii ATCC 19606 [14]): 0,8 µM; MIC (E. cloacae ATCC 13047 [1]; ATCC 13047, 18 h): 2 µM; MBC (A. baumannii ATCC 19606 [10]; ATCC 19606, 18 h): 2 µM; MIC [16]: 2 µM; MBC ([11]; ATCC 700603, 18 h): 8 µM; MBC (geometric mean) ([11]; ATCC 700603, 18 h): 6,3 µM; MBC (geometric mean) (P. aeruginosa ATCC 27853 [12]; ATCC 27853, 18 h): 20,2 µM; MBC (geometric mean) (S. aureus ATCC 25923 [13]; ATCC 25923, 18 h): 40,3 µM
